Test [1] relates to uptake of 3H-NA. In words: Inhibition of uptake of 3H-noradrenaline in vitro (mouse midbrain slices). The following applies: 5 min, compound added to incubation medium, l-noradrenaline 1×10^-7 M, 5 min incubation, ED50 from dose response curves, read-out: Inhibition (50%) of uptake in vitro NA. It counts as cell-based, mice. On the procedure:
(§1) The method is described by Ross, Renyi and Ogren in European Journal of Pharmacology 17 (1972), 107-112. Tricyclic antidepressant drugs of type imipramine added in vitro or given in vivo to mice decrease the uptake of ^14 C-5-HT and ^3 H-NA in vitro. In the in vitro experiments different concentrations of the test compound were added to the incubation medium. In the in vivo experiments different doses of the test drug were administered intraperitoneally half an hour before the animals were killed. The incubation performance was the same in the two types of experiments, i.e. the midbrain was taken out and sliced and incubated in a mixture consisting of, per 100 mg of brain slices, 0.2 n-mole of ^14 C-5-HT, 0.2 n-mole of ^3 H-NA and 11μ mole of glucose in 2 ml of Krebs-Henseleit buffer, pH 7.4. The incubation time was 5 minutes. The radioactive amines taken up in the slices were dissolved in Soluene-350® (Packard) and the amounts were determined with the double labelling technique by liquid scintillation. The concentration or dose producing 50 percent decrease of the active uptake (ED50) was determined graphically from dose response curves. Active uptake is defined as that part of the radioactive uptake which is inhibited by a high concentration of cocaine. All doses were given at least to four animals.

Test [2] has as its system uptake of 3H-NA. The experiment in a line: Inhibition of uptake of 3H-noradrenaline in vivo (drug given i.p., uptake measured in midbrain slices). Particulars: Mus musculus, ip, 0.5 h, mice dosed i.p. half an hour before killing, l-noradrenaline 1×10^-7 M, read-out: Inhibition (50%) of uptake in vivo NA. On the procedure:
as §1, with “Tricyclic antidepressant drugs of type imipramine added in vitro or given in vivo to mice decrease the uptake of ^14 C-5-HT and ^3 H-NA in vitro.” left out

Test [3] concerns uptake of 14C-5-HT. The experiment in a line: Inhibition of uptake of 14C-5-HT in vitro (mouse midbrain slices). Type of test: cell-based, mice. The following applies: 5 min, read-out: Inhibition (50%) of uptake in vitro 5-HT. The method, then: as §1
The test system of test [4] is 5-HTP behavioural syndrome. In words: 5-HTP response potentiation test. It counts as in vivo, mice. The following applies: Mus musculus, read-out: Potentiation of 5-HTP effective dose. On the procedure: Inhibition of the uptake of 5-HT potentiates the effects of administered 5-hydroxytryptophan (5-HTP) probably by increasing the amount of 5-HT at the receptor. Three mice are given the test drugs one hour (or 4, 24 hours) before dl-5-HTP 90 mg/kg i.v. 5-HTP alone gives only a weak behavioural syndrome but in pretreated mice there is seen a characteristic behavioural syndrome, which comes within five minutes: tremor, lordosis, abduction of the hindlegs, head-twiches. The strength of the syndrome is scored from 0 to +3. Each group consists of 3 animals and at least 4 groups were tested at 25 mg/kg i.p. Control groups receiving imipramine (Tofranil®) are used as reference, since imipramine constantly potentiated dl-5-HTP. The least dose of the test compound producing maximal score (+3) in all animals is estimated from a logarithmic dose-response curve, and is denoted "effective dose" in the following Table.

Test [5] deals with uptake of 14C-5-HT. In words: Inhibition of uptake of 14C-5-HT in vivo (drug given i.p., uptake measured in midbrain slices). Particulars: Mus musculus, ip, 0.5 h, mice dosed i.p. half an hour before killing, 5-HT 1×10^-7 M, read-out: Inhibition (50%) of uptake in vivo 5-HT. The method, then: as §1, with “Tricyclic antidepressant drugs of type imipramine added in vitro or given in vivo to mice decrease the uptake of ^14 C-5-HT and ^3 H-NA in vitro.” left out

In brackets after ≈: the same amount, converted by molar mass. Where two headings read alike, the source gives them in different places.

IC50, ED50 and minimal effective dose data for two compounds are collected here from patent publication US4177291A, “Compounds having antidepressive activity” (priority 1976, dated 1979).

`CN(C)CCCN1c2ccccc2CCc2ccccc21` [Imipramine, imipramine]: the IC50 in the test on uptake of 3H-NA [1] is 0.06 µg/mL (≈ 0.214 µM); in the test with uptake of 14C-5-HT [3] (Mus musculus), 0.1 µg/mL (≈ 0.357 µM). In addition, the ED50 with uptake of 3H-NA [2] came to 6 mg/kg; in the test on uptake of 14C-5-HT [5], 24 mg/kg. The minimal effective dose in test [4] stood at 15 mg/kg.

With `CC(N)C(=O)CC(C)(C)Cc1ccc(Cl)cc1.Cl` (stereo not shown) [GEA 995, 2-amino-6-(4-chlorophenyl)-5,5-dimethyl-3-hexanone hydrochloride], the IC50 with uptake of 3H-NA [1] is over 10 µg/mL; in the test with uptake of 14C-5-HT [3] (compound added to incubation medium, mouse midbrain slices, 5-HT 1×10^-7 M, 5 min incubation, ED50 from dose response curves), 0.6 µg/mL. Further, the ED50 with uptake of 3H-NA [2] was over 40 mg/kg; in the test with uptake of 14C-5-HT [5], 20 mg/kg. Also, the minimal effective dose in test [4] (mice, least dose producing maximal score (+3) in all animals, test drug given before dl-5-HTP 90 mg/kg i.v.) was 4 mg/kg.
